In the test the target is T1, Beta-glucuronidase (Bos taurus, UniProt A3KMY8).
T1 sequence (A3KMY8 whole entry): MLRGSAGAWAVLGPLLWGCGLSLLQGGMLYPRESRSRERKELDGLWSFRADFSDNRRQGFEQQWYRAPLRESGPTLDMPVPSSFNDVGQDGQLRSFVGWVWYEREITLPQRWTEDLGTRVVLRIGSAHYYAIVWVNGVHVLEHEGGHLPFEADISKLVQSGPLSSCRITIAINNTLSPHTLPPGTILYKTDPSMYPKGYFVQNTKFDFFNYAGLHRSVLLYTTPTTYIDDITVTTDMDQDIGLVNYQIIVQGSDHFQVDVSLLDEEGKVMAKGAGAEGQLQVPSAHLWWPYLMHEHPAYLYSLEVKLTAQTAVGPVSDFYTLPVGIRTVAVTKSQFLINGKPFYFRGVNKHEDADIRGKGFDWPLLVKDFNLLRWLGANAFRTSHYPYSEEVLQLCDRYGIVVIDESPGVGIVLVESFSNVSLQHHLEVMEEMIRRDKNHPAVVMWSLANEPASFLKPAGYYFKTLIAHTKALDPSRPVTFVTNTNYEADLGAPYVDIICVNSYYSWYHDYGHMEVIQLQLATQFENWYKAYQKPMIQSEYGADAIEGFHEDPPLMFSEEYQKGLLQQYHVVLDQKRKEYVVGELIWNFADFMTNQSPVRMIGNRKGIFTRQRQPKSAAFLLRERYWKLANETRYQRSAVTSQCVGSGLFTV
Kind of test: Inhibition of bovine beta-glucuronidase assessed as p-nitrophenol formation preincubated for 30 mins followed by addition of p-nitrophenyl-beta-D-glucuronide by spectrophotometric analysis.

Consider 22 compounds from ChEMBL document CHEMBL3784985, “Thiadiazole derivatives as New Class of β-glucuronidase inhibitors” (Bioorg Med Chem, 2016).

In the case of `Clc1ccccc1-c1nnc(Nc2cccc(Br)c2)s1`, the IC50 amounted to 8.96 µM. On to `Clc1ccc(Nc2nnc(-c3ccc(Br)cc3)s2)cc1Cl`, for which the IC50 came out at 7.16 µM.

For the compound `Cc1ccc(Nc2nnc(-c3ccc(C(C)(C)C)cc3)s2)cc1`, the half-maximal inhibitory concentration (IC50) was found to be 26.3 µM. In the case of `COc1ccc(-c2nnc(Nc3ccc(Br)cc3)s2)c(OC)c1`, the IC50 came out at 29.7 µM. In the case of `COc1cc(OC)cc(-c2nnc(Nc3ccc(Cl)c(Cl)c3)s2)c1`, the IC50 worked out at 19.2 µM. On to `COc1ccc(Nc2nnc(-c3ccccc3Cl)s2)cc1`, for which the IC50 was determined as 22.6 µM. For `Cc1ccc(-c2nnc(Nc3ccc(Cl)c(Cl)c3)s2)c(C)c1`, the IC50 worked out at 15.6 µM. As to `COc1cccc(Nc2nnc(-c3ccc(Br)cc3)s2)c1`, the IC50 is 31.1 µM.

On to `COc1ccccc1-c1nnc(Nc2ccc(Cl)c(Cl)c2)s1`, for which the IC50 was 22.6 µM. With `CC(C)(C)c1ccc(-c2nnc(Nc3ccc(Br)cc3)s2)cc1`, the IC50 came to 32.2 µM. With `Brc1ccc(-c2nnc(Nc3ccccc3)s2)cc1` the figure was 40.2 µM. With `Cc1ccc(Nc2nnc(-c3ccc(Br)cc3)s2)cc1` the figure was 28.6 µM. On to `Cc1ccc(-c2nnc(Nc3cccc(Br)c3)s2)c(C)c1`, for which the IC50 came out at 36.1 µM. To `Clc1ccc(Nc2nnc(-c3ccccc3)s2)cc1Cl` belongs 6.28 µM; to `Cc1ccc(Nc2nnc(-c3ccccc3)s2)cc1`, 48.4 µM.

On to `COc1ccc(-c2nnc(Nc3ccc(C)cc3)s2)c(OC)c1`, for which the IC50 is 39.3 µM. As to `COc1ccccc1-c1nnc(Nc2ccc(C)cc2)s1`, the IC50 stood at 58.1 µM. Turning to `COc1cc(OC)cc(-c2nnc(Nc3ccc(C)cc3)s2)c1`, the IC50 was determined as 50.3 µM. In the case of `Brc1ccc(-c2nnc(Nc3cccc(Br)c3)s2)cc1`, the IC50 came out at 17.3 µM. As to `Cc1ccc(Nc2nnc(-c3ccccc3Cl)s2)cc1`, the IC50 was determined as 16.7 µM.

For `Cc1ccc(Nc2nnc(-c3ccc(C)cc3C)s2)cc1`, the IC50 was 34.2 µM. Take `COc1ccccc1-c1nnc(Nc2cccc(Br)c2)s1`: the IC50 is 49.2 µM.
